Experimental data taken from US5942503A, “Use of Epinastine for the treatment of pain” (Boehringer Indelheim KG, priority 1995, dated 1999).
Several values for one entry are separate records, joined by “and”; a condition that tells them apart may be missing. Equal entries are not always repeated. Structures can show the parent of a compound that is named as a salt. Where two headings read alike, the source gives them in different places. Values belong to the compound of their own block, whether it stands above or below them.

Assays:
[1] = biological target: T1, rat 5HT7 receptor (Rattus norvegicus, UniProt P32305); experiment: Binding of [3H] LSD to rat 5HT7 receptor expressed in CHO cells
T1 construct: expressed in transfected cells; host or cells: CHO cells
Procedure: Binding of 2.0 nM [^3 H] LSD to a rat 5HT7 receptor expressed in CHO cells was measured for 60 minutes at 37° C. in 50 mM Tris-HCl buffer, pH 7.4, containing 10 mM MgCl2 and 0.5 mM EDTA. The reaction was terminated by rapid vacuum filtration onto glass fiber filters pretreated with 0.1% polyethyleneimine. Binding studies were made in duplicate in the absence of the drug and in the presence of between 6 and 8 concentrations of epinastine between 3 nM and 10 μM. Radioactivity trapped on the filters in the presence of each drug concentration was measured and compared with control values in order to ascertain interaction of the drug with the cloned 5-HT7 receptor site. Non-specific binding was determined in the presence of 5-carboxamidotryptamine (5-CT). The IC50 for the displacement of radiolabelled ligand was determined by graphical extrapolation and Ki values were calculated after correction for the radioligand occupancy shift by the Cheng and Prusoff equation (see Biochem. Pharmacol. 22, (1973): 3099-3108). Three experiments were carried out.

[2] = test system: Male Wistar rats
Procedure: Male Wistar rats weighing 175-190 g were anaesthetised with nembutal 50 mg/kg i.p. and the jugular vein was cannulated for injection of drugs. The animals were placed in a stereotaxic frame. Symmetrical boreholes were drilled 3.0 mm laterally and 3.2 mm posteriorly from bregma and the electrodes were lowered 9.5 mm from dura mater. The test compound epinastine or control solution were administered intravenously 10 min prior to electrical stimulation of the right trigeminal ganglion (5 min; 2.0 mA, 5 Hz, 5 ms duration and Evans blue (30 mg/kg i.v.), was given 5 min prior to electrical stimulation as a marker of plasma protein extravasation. 15 minutes after the end of the stimulation period the animals were perfused with 50 ml saline via the left cardiac ventricle to remove intravascular Evans blue. The dura mater was removed, blotted dry and weighed. Tissue Evans blue was extracted in 0.3 ml formamide at 50° C. for 24 h. Dye concentrations were measured with a spectrophotometer at 620 nm wavelength, interpolated on a standard curve and expressed as ng Evans blue content per mg tissue weight.
Extravasation was expressed as the quotient calculated by dividing the Evan's blue content of the stimulated side by the Evan's blue content of the unstimulated side. Results are expressed as means.

[3] = test system: rats of the strain Chbb:THOM; experiment: animal or person; conditions: for Mean value of pain threshold: 3 hours after yeast
Procedure: The method of Randall and Selitto was modified through use of the Analgesia meter by Basile of Milan.
Groups of 10 fasted rats of the strain Chbb:THOM (weight 110-140 g, 5 male 5 female) were dosed orally with it Natrosol 250 HX, 1 ml/100 g body weight, containing 0, 0.3, 1.0, 3.0 or 10 mg/kg epinastine (racemic mixture). 1 hour later the rats were injected subplantar with a suspension of yeast cells in a volume 0.1 ml into the right hind paw. 3 hours after injection of the yeast suspension, the pain threshold was determined by increasing the pressure on the inflamed paw until a sign of pain was produced. From the pain threshold measured after the different doses of the epinastine, linear regression analysis was used to determine an ED50.

[4] = individual values of the three experiments, read-out: Measured Ki values
[5] = mean of three experiments, 2.0 nM [3H] LSD, 60 minutes at 37° C., read-out: mean Ki value

T1 sequence (P32305 whole entry): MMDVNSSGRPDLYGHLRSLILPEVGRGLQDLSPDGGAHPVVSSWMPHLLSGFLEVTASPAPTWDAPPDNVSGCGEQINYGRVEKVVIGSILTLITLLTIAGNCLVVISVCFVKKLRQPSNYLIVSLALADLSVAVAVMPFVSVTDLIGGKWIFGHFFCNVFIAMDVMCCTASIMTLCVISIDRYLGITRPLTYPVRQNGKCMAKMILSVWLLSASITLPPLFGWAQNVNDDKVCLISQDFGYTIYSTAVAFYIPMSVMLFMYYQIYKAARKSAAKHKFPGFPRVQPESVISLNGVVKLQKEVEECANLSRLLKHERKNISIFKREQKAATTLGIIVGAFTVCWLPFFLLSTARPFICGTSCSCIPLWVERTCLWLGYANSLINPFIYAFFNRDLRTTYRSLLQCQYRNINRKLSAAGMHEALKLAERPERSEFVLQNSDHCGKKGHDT

SMILES: NC1=NCC2c3ccccc3Cc3ccccc3N12 (single isomer, unassigned; (-)) [Epinastine (-) Enantiomer, (-)-3-Amino-9,13b-dihydro-1H-dibenz-[c,f]-imidazo[1,5a]-azepine-hydrochloride]
Ki [1, 4]: 155 nM and 204 nM and 207 nM | Ki [1, 5]: 189 nM

Ki [1, 4]: 2660 nM and 747 nM and 1330 nM
SMILES: COc1ccc(CN(CCN(C)C)c2ccccn2)cc1 [Mepyramine]

Ki [1, 4]: 406 nM and 572 nM and 331 nM
SMILES: CN1CCC(=C2c3ccccc3CC(=O)c3sccc32)CC1 [Ketotifen]

SMILES: NC1=NCC2c3ccccc3Cc3ccccc3N12 (racemic) [Epinastine, 3-amino-9,13b-dihydro-1H-dibenz[c,f]-imidazo[5,1-a]azepine hydrochloride]
Ki ([1]; Measured Ki values, individual values of the three experiments): 27 nM and 41 nM and 30 nM | Ki ([1]; mean Ki value, mean of three experiments, 2.0 nM [3H] LSD, 60 minutes at 37° C.): 33 nM | Quotient stimulated/non-stimulated side, mean ([2]; epinastine 10 μg/kg i.v., mean of 7 animals (control mean 1.25)): 0.98 | Evans blue extravasation induced by electrical stimulation of the trigeminal ganglion ([2]; result in words): significantly reduced | % Increase of pain threshold ([3]; 0.3 mg/kg p.o.): 9.6% | Mean value of pain threshold ([3]; 0.3 mg/kg p.o.): 164.8 g/hind paw | % Increase of pain threshold ([3]; 1.0 mg/kg p.o.): 56.4% | Mean value of pain threshold ([3]; 1.0 mg/kg p.o.): 235.2 g/hind paw | % Increase of pain threshold ([3]; 3.0 mg/kg p.o.): 72.5% | Mean value of pain threshold ([3]; 3.0 mg/kg p.o.): 259.4 g/hind paw | % Increase of pain threshold ([3]; 10.0 mg/kg p.o.): 81.4% | Mean value of pain threshold ([3]; 10.0 mg/kg p.o.): 272.8 g/hind paw | ED50 ([3]; Rattus norvegicus, po, read-out: ED50, dose required to increase the pain threshold by 50%): 1.1 mg/kg | pain threshold in inflamed rat paw ([3]; result in words): increased the pain threshold

SMILES: NC1=NCC2c3ccccc3Cc3ccccc3N12 (single isomer, unassigned; (+)) [Epinastine (+) Enantiomer, (+)-3-Amino-9,13b-dihydro-1H-dibenz-[c,f]-imidazo[1,5a]-azepine-hydrochloride]
Ki [1, 4]: 45 nM and 18 nM and 22 nM | Ki [1, 5]: 28 nM
